We go through eight compounds from ChEMBL document CHEMBL1201862, “PubChem BioAssay data set” (2004).

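Results reflect a 48-hour exposure of cells in 96-well plates to compound at five concentrations. Abbreviation: GI50, concentration required for 50% inhibition of growth.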 Calls of active or inactive are those of the source. Rule as the data show it: active = GI50 up to about 1.1 µM and inactive = higher.

Among the test systems are HL-60; NCI-H226; KM12; SNB-19; OVCAR-5; SF-268; HCT-116; UACC-257; K562; HOP-62; RPMI-8226; SF-295; HCT-15; CCRF-CEM; UO-31; HCC 2998; A549; MOLT-4; SK-OV-3; COLO 205.
Holding throughout (assay): NCI tumour cell line growth inhibition, 48 h

Regarding `C/C=C/C1=CC(=O)C(O)C1O` (centres undefined), the GI50 with HL-60 is 15.1 µM (inactive); in the experiment with NCI-H226, 24.1 µM (inactive); in the experiment with KM12, 15.3 µM (inactive); in the experiment on SNB-19, 37.2 µM (inactive); in the experiment on OVCAR-5 it was 39.7 µM (inactive); in the experiment on SF-268, 26.5 µM (inactive). Besides, the GI50 with HCT-116 is 26.2 µM (inactive); in the experiment on UACC-257 it was 29.4 µM (inactive); in the experiment with K562, 30.6 µM (inactive); with HOP-62, 47.6 µM (inactive); with RPMI-8226, 22.1 µM (inactive); with SF-295, 44.7 µM (inactive). Moreover, the GI50 is 27.6 µM in the experiment with HCT-15; 22.7 µM (inactive) in the experiment with CCRF-CEM; 32.2 µM (inactive) in the experiment with UO-31; 27.5 µM (inactive) in the experiment on HCC 2998; 29 µM (inactive) in the experiment with A549; 28 µM (inactive) in the experiment with MOLT-4. Moreover, the GI50 is 40.7 µM (inactive) in the experiment on SK-OV-3 and 22 µM (inactive) with COLO 205.

Take `O=C(N/N=C/c1ccccc1)c1c(F)c(F)c(F)c(F)c1F`: the GI50 is > 100 µM (inactive) with HL-60; > 100 µM (inactive) in the experiment on NCI-H226; 86.1 µM (inactive) in the experiment with KM12; > 100 µM (inactive) with SNB-19; > 100 µM (inactive) with OVCAR-5; > 100 µM (inactive) with SF-268. Also, the GI50 with HCT-116 was 56 µM (inactive); in the experiment on UACC-257 it was > 100 µM (inactive); with K562, > 100 µM (inactive); in the experiment on HOP-62, > 100 µM (inactive); with RPMI-8226, > 100 µM (inactive); in the experiment on SF-295, > 100 µM (inactive). The GI50 with HCT-15 is 50.1 µM; with CCRF-CEM, > 100 µM (inactive); in the experiment with UO-31, > 100 µM (inactive); in the experiment on HCC 2998, > 100 µM (inactive); with A549 it was > 100 µM (inactive); in the experiment with MOLT-4, > 100 µM (inactive). Further, the GI50 with SK-OV-3 and in the experiment on COLO 205 was > 100 µM (inactive) throughout.

Regarding `COc1ccc(C(=O)/C=C/c2ccc(OCC(=O)N3CCN(c4ccccc4)CC3)cc2)cc1`, the GI50 was > 35.6 µM (inactive) in the experiment with HL-60; > 83 µM (inactive) with NCI-H226; > 76.4 µM (inactive) with KM12; 27.9 µM (inactive) with SNB-19; > 100 µM (inactive) in the experiment on OVCAR-5; 54 µM (inactive) in the experiment on SF-268. The GI50 was 64.6 µM (inactive) with HCT-116; > 100 µM (inactive) in the experiment on UACC-257; > 60.5 µM (inactive) in the experiment with K562; 39.1 µM (inactive) with HOP-62; > 39.8 µM (inactive) in the experiment with RPMI-8226; 32.6 µM (inactive) with SF-295. Moreover, the GI50 in the experiment with HCT-15 was 54.7 µM; in the experiment on CCRF-CEM, > 35.6 µM (inactive); in the experiment on UO-31 it was 44.2 µM (inactive); with HCC 2998 it was > 100 µM (inactive); in the experiment with A549 it was 51.6 µM (inactive); in the experiment with MOLT-4 it was > 26.7 µM (inactive). The GI50 is 29.1 µM (inactive) in the experiment with SK-OV-3 and > 64.6 µM (inactive) with COLO 205.

For the compound `COC(=O)C(C/C=C(\C)c1ccc(Cl)cc1)C(C)=O` (centres undefined), the GI50 in the experiment with HL-60 was 14.6 µM (inactive); with NCI-H226 it was 24.6 µM (inactive); in the experiment on KM12 it was 37 µM (inactive); in the experiment with SNB-19 it was > 100 µM (inactive); in the experiment on OVCAR-5, 16.4 µM (inactive); in the experiment on SF-268, 48.3 µM (inactive). In addition, the GI50 in the experiment with HCT-116 is 41.7 µM (inactive); with UACC-257, 23 µM (inactive); in the experiment with K562, 36.4 µM (inactive); in the experiment on HOP-62 it was > 56 µM (inactive); with RPMI-8226, 24.2 µM (inactive); with SF-295, 39.9 µM (inactive). Also, the GI50 in the experiment on HCT-15 was 37.5 µM; in the experiment with CCRF-CEM it was 30.1 µM (inactive); in the experiment with UO-31 it was 22.9 µM (inactive); with HCC 2998, 75.9 µM (inactive); with A549, 31 µM (inactive); in the experiment with MOLT-4 it was 17.9 µM (inactive). For the same compound, the GI50 with SK-OV-3 was > 100 µM (inactive); with COLO 205, 59.8 µM (inactive).

Regarding `N#CCc1c(F)c(F)c(F)c(F)c1F`, the GI50 in the experiment with HL-60, with NCI-H226, in the experiment on KM12, in the experiment on SNB-19, with OVCAR-5 and in the experiment with SF-268 was > 100 µM (inactive) in each case. The GI50 in the experiment with HCT-116, with UACC-257, in the experiment with K562, with HOP-62, in the experiment with RPMI-8226 and in the experiment with SF-295 was > 100 µM (inactive) throughout. Also, the GI50 in the experiment on HCT-15 was greater than 100 µM; with CCRF-CEM, > 100 µM (inactive); with UO-31, > 100 µM (inactive); in the experiment with HCC 2998, > 100 µM (inactive); with A549, > 100 µM (inactive); with MOLT-4, > 100 µM (inactive). For the same compound, the GI50 with SK-OV-3 and in the experiment with COLO 205 was > 100 µM (inactive) throughout.

Consider `O=C(NC1C=CCC2C(=O)N(c3ccccc3)C(=O)C12)OCc1ccccc1` (centres undefined), for which the GI50 was > 100 µM (inactive) with HL-60; > 100 µM (inactive) in the experiment with NCI-H226; > 100 µM (inactive) in the experiment on KM12; > 100 µM (inactive) with SNB-19; 97.3 µM (inactive) in the experiment with OVCAR-5; > 100 µM (inactive) with SF-268. The GI50 with HCT-116, in the experiment on UACC-257, in the experiment on K562, with HOP-62, with RPMI-8226 and in the experiment with SF-295 was > 100 µM (inactive) throughout. For the same compound, the GI50 with CCRF-CEM, in the experiment on UO-31, in the experiment on HCC 2998, in the experiment on A549, in the experiment with MOLT-4 and in the experiment on SK-OV-3 was > 100 µM (inactive) in each case. In the experiment with COLO 205, the GI50 is > 100 µM (inactive).

Consider `O=C1C[C@H](Sc2ccccc2)C2(OCCO2)[C@@H](Sc2ccccc2)C1`, for which the GI50 is 0.272 µM (active) in the experiment with HL-60; 2.31 µM (inactive) with NCI-H226; 1.79 µM (inactive) with KM12; 11 µM (inactive) in the experiment on SNB-19; 3.35 µM (inactive) in the experiment with OVCAR-5; 1.87 µM (inactive) in the experiment with SF-268. The GI50 is 1.6 µM (inactive) with HCT-116; 1.8 µM (inactive) with UACC-257; 0.351 µM (active) in the experiment with K562; 3.27 µM (inactive) in the experiment with HOP-62; 0.743 µM (active) in the experiment with RPMI-8226; 4.33 µM (inactive) in the experiment on SF-295. Further, the GI50 in the experiment on HCT-15 was 1.68 µM; in the experiment with CCRF-CEM, 0.282 µM (active); with UO-31, 1.23 µM (inactive); with HCC 2998, 2.58 µM (inactive); with A549, 1.87 µM (inactive); in the experiment with MOLT-4, 0.26 µM (active). Further, the GI50 is 11.5 µM (inactive) in the experiment on SK-OV-3 and 4.28 µM (inactive) with COLO 205.

For `Cc1csc(/N=C(/NCCN2CCOCC2)Nc2nc(C)cs2)n1`, the GI50 is 60.7 µM (inactive) in the experiment with HL-60; > 100 µM (inactive) in the experiment on NCI-H226; > 100 µM (inactive) with KM12; > 100 µM (inactive) in the experiment with SNB-19; > 100 µM (inactive) in the experiment on OVCAR-5; > 100 µM (inactive) in the experiment on SF-268. The GI50 with HCT-116 was > 70.1 µM (inactive); in the experiment with UACC-257, > 100 µM (inactive); in the experiment on K562, > 100 µM (inactive); with HOP-62 it was > 100 µM (inactive); with RPMI-8226 it was > 100 µM (inactive); in the experiment on SF-295, > 80.2 µM (inactive). For the same compound, the GI50 in the experiment with HCT-15 is greater than 100 µM; in the experiment on CCRF-CEM it was > 100 µM (inactive); in the experiment on UO-31, > 100 µM (inactive); with HCC 2998, > 100 µM (inactive); in the experiment with A549 it was > 100 µM (inactive); with MOLT-4, > 100 µM (inactive). The GI50 in the experiment on SK-OV-3 and with COLO 205 was > 100 µM (inactive) throughout.
